{
  "source": "paper PMC6277198",
  "about": "“Molecular basis for activation of lecithin:cholesterol acyltransferase by a compound that increases HDL cholesterol” (eLife, 2018)",
  "key": {"WT LCAT": {"target": "T1, WT LCAT (Homo sapiens, UniProt P04180)", "T1 sequence (P04180 25-440)": "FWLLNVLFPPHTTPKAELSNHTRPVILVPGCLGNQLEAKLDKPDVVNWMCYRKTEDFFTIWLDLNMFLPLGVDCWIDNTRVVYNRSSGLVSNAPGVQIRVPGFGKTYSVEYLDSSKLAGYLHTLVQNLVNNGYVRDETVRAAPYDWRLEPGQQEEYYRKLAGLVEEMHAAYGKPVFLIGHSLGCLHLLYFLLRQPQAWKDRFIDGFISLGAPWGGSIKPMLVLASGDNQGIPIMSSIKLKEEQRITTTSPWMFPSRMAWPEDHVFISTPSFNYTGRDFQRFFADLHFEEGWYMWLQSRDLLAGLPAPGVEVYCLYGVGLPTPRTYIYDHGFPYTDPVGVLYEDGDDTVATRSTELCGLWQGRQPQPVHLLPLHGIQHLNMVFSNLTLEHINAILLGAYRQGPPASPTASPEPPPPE", "assay": "Bio-layer interferometry, LCAT binding to ApoA-I HDLs", "details": "10 μM compound 1", "procedure": "A FortéBio Octet RED system was used to measure the binding of LCAT to ApoA-I HDLs. HDLs were prepared with 1,2-dipalmitoyl-sn-glycero-3-phosphocholine (DPPC), 1-palmitoyl-2-oleoyl-sn-glycero-3-phosphocholine (POPC), and 16:0 biotinyl Cap PE in a ratio of 49.5:49.5:1 ([Manthei et al., 2017]). HDLs were diluted 1/20 in assay buffer (1X PBS pH 7.4, 1 mM EDTA, 60 µM fatty acid free bovine serum albumin) and then immobilized on streptavidin tips for 600 s, followed by a wash in assay buffer for 600 s to remove unbound HDLs. The tips were then moved to buffer containing DMSO or compound 1 and allowed to equilibrate for 120 s before a baseline was established for 30 s. […] In order to determine Kd values, the kobs (from association) were determined at each concentration for the fast phase and then plotted against LCAT concentration. The slope of the line was evaluated as kon using the equation kobs = kon[LCAT]+koff and the resultant Kd = koff/kon. For statistical analysis, the kon, koff, and Kd for each replicate was determined individually and the results were compared to WT using a one-way analysis of variance followed by Tukey’s multiple comparisons post-test in GraphPad Prism."}, "LCAT R244H": {"target": "T2, LCAT R244H (Homo sapiens, UniProt P04180, R268H)", "T2 construct": "hydrolysis of 4-methylumbelliferyl palmitate (MUP) by full-length LCAT; made in house; host or cells: HEK293F (transient transfection, secreted)", "T2 sequence (P04180 25-440 R268H)": "T1 sequence (P04180 25-440) with R244H", "assay": "Differential scanning fluorimetry", "assay_type": "binding", "details": "addition of compound 1", "procedure": "Tm values were determined using an Applied Biosystems QuantStudio 7 Flex qPCR machine with two replicates performed at least in triplicate. LCAT at 0.05 mg mL^−1 was diluted into reaction buffer containing 5X Sypro Orange in a final volume of 10 μL in 384-well PCR plates. DMSO or compound 1 was added so that all reactions contained 3% DMSO. The reactions were run from 25–95 °C with a ramp rate of 0.03 °C s^−1. Tm values were determined as the derivative using Protein Thermal Shift software. Significance was determined using a one-way analysis of variance followed by Tukey’s multiple comparisons post-test in GraphPad Prism."}},
  "note": "Substitutions are numbered along the chain they refer to. “Also recorded” adds a separate entry of the source.",
  "data": [
    {"smiles": "N#Cc1cnc(N2CCC(c3n[nH]c4c3C(O)(C(F)(F)F)CC(=O)N4)CC2)cc1C(F)(F)F", "note": "(centres unmarked) [compound 1, 6-(4-(4-Hydroxy-6-oxo-4-(trifluoromethyl)−4,5,6,7-tetrahydro-1H-pyrazolo[3,4-b]pyridin-3-yl)piperidin-1-yl)−4-(trifluoromethyl)nicotinonitrile]", "values": [
      {"measurement": "Effect on LCAT binding to HDL (kon, koff, Kd) in BLI", "setting": "WT LCAT", "result": "does not affect; also recorded: no change"},
      {"measurement": "∆Tm", "setting": "LCAT R244H", "result": "4.8 ˚C"}
    ]}
  ]
}
